From publication PMC4275348 (Molecular microbiology, 2014)
Residue numbers refer to the chain shown, from its start. Entries after “also recorded” stand apart in the source; their conditions may differ.

Legend:
[1] = system: Kin^off LuxN mutants; assay: Bioluminescence of V. harveyi XK006 harboring Kin^off biased luxN alleles; format: cell-based, Vibrio harveyi; settings: 10 μM 3O-C12 HSL
[2] = target: LuxN (Vibrio campbellii, UniProt A7MRY4); format: cell-based, Vibrio harveyi; settings: IC50 values measured at various concentrations of AI-1
[3] = target: WT LuxN (Vibrio campbellii, UniProt A7MRY4); settings: XK847
[4] = target: luxN^L166A/H210N (Vibrio campbellii, UniProt A7MRY4, H210N/L166A); settings: AHLs added at 1 μM
[5] = system: AinR Ser^203 replaced by Ile; assay: Bioluminescence of V. harveyi XK006 harboring ainR S203I; format: cell-based, Vibrio fischeri
[6] = target: T1, LuxN^G147D/Y194H (Vibrio campbellii, UniProt A7MRY4, G147D/Y194H); assay: Bioluminescence of V. harveyi XK006 carrying luxN G147D/Y194H; format: cell-based, Vibrio harveyi; settings: 10 μM C8 HSL
T1 sequence (A7MRY4 1-849 G147D/Y194H): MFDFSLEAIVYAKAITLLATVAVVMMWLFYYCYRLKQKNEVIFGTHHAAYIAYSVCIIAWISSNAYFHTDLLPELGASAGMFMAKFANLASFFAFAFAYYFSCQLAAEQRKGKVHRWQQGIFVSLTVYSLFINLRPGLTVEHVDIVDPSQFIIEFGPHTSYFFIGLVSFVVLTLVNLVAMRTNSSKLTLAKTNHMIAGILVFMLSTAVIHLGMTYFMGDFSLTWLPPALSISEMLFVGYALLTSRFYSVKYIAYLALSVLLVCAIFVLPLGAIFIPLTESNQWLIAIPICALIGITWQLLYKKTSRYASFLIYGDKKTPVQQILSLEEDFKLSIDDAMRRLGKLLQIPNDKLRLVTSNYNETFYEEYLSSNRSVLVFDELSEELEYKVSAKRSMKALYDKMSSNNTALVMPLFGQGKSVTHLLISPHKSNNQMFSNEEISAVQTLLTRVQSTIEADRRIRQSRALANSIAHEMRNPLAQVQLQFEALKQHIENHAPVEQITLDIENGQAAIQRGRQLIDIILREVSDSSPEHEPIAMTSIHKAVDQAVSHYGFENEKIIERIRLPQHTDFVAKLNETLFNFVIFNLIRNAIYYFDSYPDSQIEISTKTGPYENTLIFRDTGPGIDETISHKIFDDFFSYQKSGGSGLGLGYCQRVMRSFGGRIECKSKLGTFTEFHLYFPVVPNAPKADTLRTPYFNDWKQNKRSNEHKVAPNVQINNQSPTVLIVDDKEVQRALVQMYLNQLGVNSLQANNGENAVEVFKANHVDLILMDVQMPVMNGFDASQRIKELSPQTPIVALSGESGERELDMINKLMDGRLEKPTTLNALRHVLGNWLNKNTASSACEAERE

[7] = system: WT AinR; assay: Bioluminescence of V. harveyi XK006 harboring WT V. fischeri ainR; format: cell-based, Vibrio fischeri
[8] = target: LuxN^L166A (Vibrio campbellii, UniProt A7MRY4, L166A)
[9] = target: T2, LuxN^L166H/N176D (Vibrio campbellii, UniProt A7MRY4, L166H/N176D); assay: Bioluminescence of V. harveyi XK006 carrying luxN L166H/N176D; format: cell-based, Vibrio harveyi; settings: 10 μM C8 HSL
T2 sequence (A7MRY4 1-849 L166H/N176D): T1 sequence (A7MRY4 1-849 G147D/Y194H) with D147G, L166H, N176D, H194Y

[10] = system: AinR^Q204H; assay: Bioluminescence of V. harveyi XK006 harboring ainR Q204H; format: cell-based, Vibrio fischeri

Compound	inhibition of light production [1]	mechanism of antagonism [2]	light production phenotype [3]	light production [4]	detection (light production) [5]	induction of light production [6] [fold]	light production ([7]; AHLs added at 1 μM)	sensitivity of the reporter ([7]; dose response (Table S3))	detection (light production) [8]	higher light compared to DMSO or 20 nM AI-1 [9] [fold]	detection (light production) [10]
CCCCCCCCCC(=O)CC(=O)N[C@H]1CCOC1=O [3O-C12 HSL]	inhibited light production to basal levels; also recorded: reduced light production to basal levels	competitive	completely dark phenotype								
CCCCCCCC(=O)N[C@H]1CCOC1=O [C8 HSL]		behaved similarly to 3O-C12 HSL		produced maximal light	most potent agonist	10	light production was induced	most sensitive	only modest detection	3	retained the capability to detect
